How the values were obtained:
[1] = Pocket concentration of antibiotic after implantation; assay type: in vivo; details: other: implantation
[2] = Post implant serum concentration of antibiotic; assay type: in vivo; details: other: implantation
[3] = Tissue concentration of antibiotic after implantation; assay type: in vivo; details: other: implantation
myofibroblast formation = details: Ajmal et al. (2003); cited from earlier work
[4] = after about 2 hours, range worded for embodiments, see Table 8
[5] = after about 6 hours, range worded for embodiments, see Table 8
[6] = after about 2 hours, range worded for embodiments, see Table 9
[7] = after about 6 hours, range worded for embodiments, see Table 9
[8] = after about 24 hours, range worded for embodiments, see Table 9
[9] = 2 h, Left, read-out: Average Tissue concentration
[10] = 2 h, Right, read-out: Average Tissue concentration
[11] = 6 h, Left, read-out: Average Tissue concentration
[12] = 6 h, Right, read-out: Average Tissue concentration
[13] = 24 h, Left, read-out: Average Tissue concentration
[14] = 24 h, Right, read-out: Average Tissue concentration
[15] = after about 2 hours, range worded for embodiments, see Table 7, read-out: tissue concentration
[16] = after about 6 hours, range worded for embodiments, see Table 7, read-out: tissue concentration
[17] = after about 24 hours, range worded for embodiments, see Table 7, read-out: tissue concentration

| Structure (SMILES) | concentration at 2 h ([1]; 2 h, Left) [ng/mL] | concentration at 6 h ([1]; 6 h, Left) [ng/mL] | concentration at 6 h ([1]; 6 h, Right) [ng/mL] | concentration at 2 h [1, 4] [ng/mL] | concentration at 6 h [1, 5] [ng/mL] | concentration at 2 h ([2]; 2 h) [ng/mL] | concentration at 6 h ([2]; 6 h) [ng/mL] | concentration at 24 h ([2]; 24 h) [ng/mL] | concentration at 2 h [2, 6] [ng/mL] | concentration at 6 h [2, 7] [ng/mL] | concentration at 24 h [2, 8] [ng/mL] | concentration at 2 h [3, 9] [ng/mL] | concentration at 2 h [3, 10] [ng/mL] | concentration at 6 h [3, 11] [ng/mL] | concentration at 6 h [3, 12] [ng/mL] | concentration at 24 h [3, 13] [ng/mL] | concentration at 24 h [3, 14] [ng/mL] | concentration at 2 h [3, 15] [ng/mL] | concentration at 6 h [3, 16] [ng/mL] | concentration at 24 h [3, 17] [ng/mL] | also measured |
| --- | --- | --- | --- | --- | --- | --- | --- | --- | --- | --- | --- | --- | --- | --- | --- | --- | --- | --- | --- | --- | --- |
| CO[C@H]1/C=C/O[C@@]2(C)Oc3c(C)c(O)c4c(O)c(c(/C=N/N5CCN(C)CC5)c(O)c4c3C2=O)NC(=O)/C(C)=C\C=C\[C@H](C)[C@H](O)[C@@H](C)[C@@H](O)[C@@H](C)[C@H](OC(C)=O)[C@@H]1C [Rifampin] | 2020 | 19600 | 100000 | 1000 to 20000 | 15000 to 110000 | 27.1 | 20.8 | 44.3 | 15 to 45 | 10 to 40 | 30 to 60 | 765 | 1270 | 2080 | 2210 | 4040 | 2720 | 600 to 1400 | 1900 to 2300 | 2600 to 4200 | concentration at 2 h ([1]; 2 h, Right): 16400 ng/mL |
| O=S(=O)([O-])CCS.[Na+] [MESNA, sodium 2-mercaptoethane sulfonate] |  |  |  |  |  |  |  |  |  |  |  |  |  |  |  |  |  |  |  |  | myofibroblast formation (myofibroblast formation): diminish myofibroblast formation |
| CN(C)c1ccc(O)c2c1C[C@H]1C[C@H]3[C@H](N(C)C)C(O)=C(C(N)=O)C(=O)[C@@]3(O)C(O)=C1C2=O [Minocycline] | 16400 | 26800 | 207000 | 15000 to 17000 | 25000 to 210000 | 46.5 | 79.1 | 69.4 | 30 to 60 | 60 to 100 | 50 to 90 | 700 | 783 | 2680 | 2600 | 1330 | 1840 | 650 to 800 | 2550 to 2750 | 1200 to 1900 |  |

Source: US9585988B2, “Anchorage devices comprising an active pharmaceutical ingredient” (TYRX, Inc., priority 2010, dated 2017)
